Where two headings read alike, the source gives them in different places.
Legend:
[1] = type: physicochemical; set-up: key to Fibril / Fibril Formation / TEM 2cat / Fibril: 1 = fibrils present; 0 non-fibrillar structures; details: for Fibril / Fibril Formation: 1 mg/mL, uranyl acetate stain, qualitative
[2] = Zeta-potential measurement; type: physicochemical
Procedure, shortened: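 Dissolve peptide from DMSO (10 mg/mL stock) into PBS pH 7.4 to 1 mg/mL. Incubate 1 d, RT. Dilute in 1 mM KCl just before reading. Derive zeta potential from mobility (Smoluchowski).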

[3] = Turbidity, derived count rate of scattered light; type: physicochemical; details: for Count Rate / kcps: derived count rate of scattered light at 633 nm, 173°, from zeta-potential measurement, 0.1 mg/mL in 1 mM KCl after 1 d at 1 mg/mL in PBS, turbidity / microscopic aggregation, mean of triplicate
Procedure, shortened: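 One-day room-temperature aggregation at 1 mg/mL in PBS (pH 7.4) preceded measurement; samples then went into 1 mM KCl. Triplicates per sample, two independent experiments averaged.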

[4] = Turbidity, derived count rate of scattered light; type: physicochemical; details: for Count Rate: derived count rate of scattered light (turbidity); for Log10 Count Rate: turbidity, derived count rate of scattered light, data of Figure 2D
[5] = FigS12 panel A, fibril category by TEM
[6] = TEM, 1 = fibrils present, 0 = non-fibrillar
[7] = TEM, 1 = fibrils present, 0 = non-fibrillar structures
[8] = zeta potential of peptide assemblies
[9] = zeta-potential of peptide, source data of Figure 2C
[10] = zeta-potential of the peptide assemblies, mean, Figure 3A source data
[11] = Log10 of derived count rate of scattered light (turbidity)
[12] = log10 of derived count rate of scattered light (turbidity)
[13] = turbidity, Log10 of derived count rate of scattered light, Figure 3A source data
[14] = turbidity, log10 of derived count rate of scattered light

Substance	TEM 2cat ([1]; Fig S10 panel D)	TEM 2cat [1, 5]	Fibril ([1]; FigS12 panel B, TEM)	Fibril / Fibril Formation ([1]; TEM)	Fibril [1, 6]	Fibril [1, 7]	Zeta-Pot. [2, 8]	Zeta-Potential / mV [2, 9] [mV]	Zeta-Potential / mV [2, 10] [mV]	Log10 Count Rate [3, 11]	Count Rate / kcps [3] [kcps]	Log10 Count Rate [3, 12]	Log10 Count Rate [3, 13]	Count Rate [4]	Log10 Count Rate [4]	Fibril ([1]; Fig S10 panel E)	TEM 2cat ([1]; category: fibrils present or non-fibrillar)	Zeta-Pot. [2]	Log10 Count Rate [3, 14]
CKYKYQY	0	0	0	0	0	0	1.49	3.282	1.49	3.026	1061	3.026	3.026	1061	3.026				
CRFRFQF	1			1	1	1		6.218	-2.1	2.592	391		2.592	390.5	2.592	1	1	-2.097	2.592
CRFRVPF	0	0	0	0	0	0		1.957	4.41	1.869	74		1.869	73.97	1.869	0		4.413	1.869
EFEFQF	0	0	0	0	0	0	-24.5	-14.88	-24.5	2.608	405	2.608	2.608	405.4	2.608				
EIEIEIEI	1	1	1	1	1	1	-8.92	-7.535	-8.92	2.731	538		2.731	538.4	2.731				2.731
FDPFDPFDP	0	0	0	0	0	0		-6.68	-10.9	2.412	258		2.412	258	2.412			-10.9	2.412
FKFDKFKFDK	0	0	0	0	0	0		-8.027	-12.7	1.6545	45		1.6545	45.13	1.6545			-12.7	1.6545
HGDKCHGDKC	0	0	0	0	0	0		-8.035	-11.63	1.095	12		1.095	12.43	1.095	0		-11.63	1.095
